Data taken from patent US8779156B2, “Analogues for the treatment or prevention of flavivirus infections” (Vertex Pharmaceuticals Incorporated, priority 2010, dated 2014).

Columns and labels:
[1] = system: sub-genomic HCV replicon of genotype 1a (cell line W11.8); experiment: Activity determination using the ELISA and the sub-genomic replicon 1a cell line (NS5A protein level); assay type: cell-based; conditions: Hepatitis C virus
Source text: Activity Determination Using the ELISA and the Sub-Genomic Replicon 1a Cell Line
The cell line W11.8 containing the sub-genomic HCV replicon of genotype 1a is used to determine the potency of the drugs. The RNA replication in presence of different drug concentrations is indirectly measured in this cell line by the level of NS5A protein content upon drug treatment for four days. It is shown that the level of the NS5A protein correlates well with the level of HCV RNA in the replicon cell line. Cells are split twice a week in order to keep the confluence state below 85% of the culture flask surface area. The culture media used for cell passaging consists of DMEM-10% foetal bovine serum with 100 UI/mL penicillin, 100 μg/mL streptomycin, 2 mM glutamine, 1 mM sodium pyruvate, non-essential amino acids (1×) and 600 μg/mL of G418 final concentrations. Monolayer of the W11.8 cells is trypsinized and cells are counted. Cells are diluted at 50,000 cells/mL with complete DMEM without G418, then approximately 5,000 viable cells (100 μL) are plated per well in a white opaque 96-well microtiter plate. After an incubation period of 2-4 hours at 37° C. in a 5% CO2 incubator, compounds are added at various concentrations. Drugs are resuspended in DMSO at a stock concentration of 10 mM. Then, drugs are serially diluted at twice the final concentration in the same medium. One volume (100 μL) of each drug dilution is then added to each well that contains cells. A control compound is used as an internal standard for each plate assay. Sixteen wells are used as control (0% inhibition) without drug. […] Values from 100% inhibited wells were averaged and used as the background value. Cells are further incubated for four days at 37° C. in a 5% CO2 incubator. Following the incubation time of four days, the media is removed and wells are washed once with 150 μL of PBS at room temperature for five minutes. Cells are then fixed for five minutes using 150 μL per well of cold (−20° C.) fixative solution (50% methanol/50% acetone mix). Cells are then washed twice with 150 μL of PBS (phosphate buffered saline) per well, following the addition of 150 μL of blocking solution, cells are incubated for one hour at 37° C. to block non-specific sites. The blocking solution is removed and cells are washed twice with 150 μL of PBS per well and once with 150 μL of PBSTS solution (PBS/0.1% Triton X-100/0.02% SDS) per well. […] Then, substrate solution (100 μl, SuperSignal ELISA Pico Chemiluminescent Substrate, Fisher Cat. No. 37069) is added in each well and plates are incubated 60 minutes at room temperature prior to reading the luminescence (relative light units) on the Analyst HT plate reader. The percentage of inhibition at each drug concentration tested (in duplicate) is calculated.

[2] = system: HCV (1b) replicon, Huh-ET cells; experiment: Cell-based luciferase reporter HCV (1b) RNA replication assay; conditions: Hepatitis C virus; for EC50: 96 h, HCV 1b replicon, luciferase, 4 days incubation, read-out: EC50_1b; for IC50: sub-genomic replicon 1b cell line
Source text: Cell-Based Luciferase Reporter HCV (Ib) RNA Replication Assay Cell Culture
Replicon cell lines Huh-5.2 are derived from the Huh-7 hepatocarcinoma cell line are maintained in culture as generally described in Krieger, N; Lohmann, V; Bartenschlager, R. Enhancement of hepatitis C virus RNA replication by cell culture-adaptive mutations. J. Virol. 2001, 75, 4614-4624. The Huh-5.2 cells contain the highly cell culture-adapted replicon I389luc-ubi-neo/NS3-375.1 construct that carries, in addition to the neomycin gene, an integrated copy to the firefly luciferase gene (Krieger, N; Lohmann, V; Bartenschlager, R. Enhancement of hepatitis C virus RNA replication by cell culture-adaptive mutations. J. Virol. 2001, 75, 4614-4624). This cell line allows measurement of HCV RNA replication and translation by measuring luciferase activity. It has been previously shown that the luciferase activity tightly follows the replicon RNA level in these cells (Krieger, N; Lohmann, V; Bartenschlager, R. Enhancement of hepatitis C virus RNA replication by cell culture-adaptive mutations. J. Virol. 2001, 75, 4614-4624). The Huh-ET cell line has the same features as those mentioned for Huh-5.2 cell line, except that ET cells are more robust and contain an adaptative mutation in the HCV NS4B gene instead of NS5A. Both cell lines are maintained in cultures at a sub-confluent level (<85%) as the level of replicon RNA is highest in actively proliferating cells. The culture media used for cell passaging consist of DMEM (Gibco BRL Laboratories, Mississauga, ON, Canada) supplemented with 10% foetal bovine serum with 1% penicilin/streptomycin, 1% glutamine, 1% sodium pyruvate, 1% non-essential amino acids, and 180 μg/ml of G418 final concentration. Cells are incubated at 37° C., in an atmosphere of 5% CO2 and passaged twice a week to maintain sub-confluence.
Approximately 3000 viable Huh-ET cells (100 μl) are plated per well in a white opaque 96-well microtiter plate. The cell culture media used for the assay is the same as described above except that it contains no G418 and no phenol red. After an incubation period of 3-4 hours at 37° C. in a 5% CO2 incubator, compounds (100 μl) are added at various concentrations. Cells are then further incubated for 4 days at 37° C. in a 5% CO2 incubator. Thereafter, the culture media is removed and cells are lysed by the addition of 95 μL of the luciferase buffer (luciferin substrate in buffered detergent). Cell lysates are incubated at room temperature and protected from direct light for at least 10 minutes. Plates are read for luciferase counts using a luminometer (Wallac MicroBeta Trilux, Perkin Elmer™, MA, USA).
Curves are fitted to data points using nonlinear regression analysis, and IC50s are interpolated from the resulting curve using GraphPad Prism software, version 2.0 (GraphPad Software Inc., San Diego, Calif., USA).

| SMILES | IC50 [1] [pM] | EC50 [2] [pM] | IC50 [2] [pM] |
| --- | --- | --- | --- |
| COC(=O)N[C@H](C(=O)N1C[C@@H](C)C[C@H]1c1nc(-c2ccc(-c3ccc(-c4ccc5nc([C@@H]6C[C@H](C)CN6C(=O)[C@@H](NC(=O)OC)C(C)C)[nH]c5c4)cc3)cc2)c[nH]1)C(C)C [Compound 5, ((S)-1-{(2S,4S)-2-[5-(4′-{2-[(2S,4S)-1-((S)-2-Methoxycarbonylamino-3-methyl-butyryl)-4-methyl-pyrrolidin-2-yl]-1H-imidazol-4-yl}-biphenyl-4-yl)-1H-benzoimidazol-2-yl]-4-methyl-pyrrolidine-1-carbonyl}-2-methyl-propyl)-carbamic acid methyl ester] | 4.1 | ≤ 5000 | 5 |
| COC(=O)NC(C(=O)N1[C@@H](C)CC[C@H]1c1nc2cc(-c3ccc(-c4ccc(-c5cnc([C@@H]6CC[C@H](C)N6C(=O)[C@@H](NC(=O)OC)C(C)C)[nH]5)cc4)cc3)ccc2[nH]1)C(C)C (stereo partly drawn) [Compound 13, Methyl N-[(1S)-1-[(2S,5S)-2-[4-[4-[4-[2-[(2S,5S)-1-[2-(methoxycarbonylamino)-3-methyl-butanoyl]-5-methyl-pyrrolidin-2-yl]-1H-benzimidazol-5-yl]phenyl]phenyl]-1H-imidazol-2-yl]-5-methyl-pyrrolidine-1-carbonyl]-2-methyl-propyl]carbamate] | 36 | ≤ 5000 | 2.6 |
| COC(=O)N[C@H](C(=O)N1C[C@@H](C)C[C@H]1c1nc(-c2ccc(-c3ccc(-c4ccc5[nH]c([C@@H]6CC[C@H](C)N6C(=O)[C@@H](NC(=O)OC)C(C)C)nc5c4)cc3)cc2)c[nH]1)C(C)C [Compound 18] | 8.5 | ≤ 5000 | 8.5 |
